Literature values in US12661368B2, “Maribavir isomers, compositions, methods of making and methods of using” (Takeda Pharmaceutical Company Limited, priority 2010, dated 2026).

Key:
[1] = system: cytomegalovirus (CMV); conditions: Phase 3, 300 Study, allogeneic SCT patients, prophylaxis
[2] = system: cytomegalovirus (CMV); conditions: Phase 2, 200 Study

## CC(C)Nc1nc2cc(Cl)c(Cl)cc2n1[C@H]1O[C@@H](CO)[C@H](O)[C@@H]1O [maribavir, 5,6-dichloro-2-(isopropylamino)-1-(β-L-ribofuranosyl)-1H-benzimidazole]
[1]
  key secondary endpoints of the study: failed to meet its key secondary endpoints
[1]; dosing fasted or fed
  reducing the rate of CMV disease, maribavir versus placebo (primary analysis): no statistically significant difference
[2]; administration for up to 12 weeks, SCT patients
  tolerability profile: favorable tolerability profile
[2]; prophylaxis, fasted dosing protocol, preliminary results
  rate of reactivation of CMV in recipients of allogeneic stem cell (bone marrow) transplants: significant reduction
